Data on three molecules can be found in patent publication US10456405B2, “Nitric oxide-releasing prodrug molecule of substituted quinazolines” (ZHEJIANG HUAHAI PHARMACEUTICAL CO., LTD, priority 2015, dated 2019).

Like-named read-outs stand apart in the source and are kept apart here.

For series [1] the following is noted: rat, in vivo.
Experimental: Experimental method: Intravenous injection solutions (the administration concentrations of the tested compounds were 1 mg/kg) and oral gastric perfusates (the administration concentrations of the test compounds were 5 mg/kg) of the test compounds were prepared, and intravenously and orally administered to three SD rats, respectively. The concentrations of the whole blood for H130 at 0.083 h, 0.25 h, 0.5 h, 1 h, 2 h, 4 h, 8 h, and 24 h after administration were determined by LC-MS/MS, respectively. The pharmacokinetic parameters were compared by a drug-time curve. Sample pretreatment: 150 μL of the whole blood to be tested was aspirated accurately. 600 μL of internal standard solution (diluted to 0.5 μg/mL with methanol) was added, sufficiently mixed by a vortex mixer, and centrifuged at 13000 r/min for 20 min at 4° C. 3 μL of the supernatant was taken into a sample vial.
Chromatographic conditions: C18 reversed-phase chromatographic column; gradient elution with mobile phase A: water/acetonitrile (v:v=95:5) with 0.025% of formic acid and 1 mM of ammonium acetate added thereto, and mobile phase B: acetonitrile/water (v:v=95:5) with 0.025% of formic acid and 1 mM of ammonium acetate added thereto.
A short description of series [2]: Release of nitric oxide in vitro (Griess reagent, nitrite). To be noted: 10^−4 mol/L tested substance, phosphate buffer pH 7.4, cysteine 5 mmol/L, 37° C., 1 h; as nitrite. The method, boiled down:
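Compounds at final 10^−4 mol/L in pH 7.4 phosphate buffer with 5 mmol/L cysteine, incubated at 37 °C. At 1 h, nitrite measured with Griess reagent (A540) against a nitrite standard curve; NO release expressed as nitrite.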

Series [3] in a line: Plasma stability in vitro, mouse plasma. Particulars: for Content of Tested Substance (n = 2): CD-1 mice plasma, 2 μM, 37° C., in % (unit assumed).
Experimental: (§1) Experimental method: The tested compounds (2 μM) were added into mouse or human plasma, and incubated at 37° C. Samples were taken at 0, 10, 30, 60 and 120 min respectively. The reaction was stopped by adding a stop agent. The mixture was sufficient shaken, and centrifuged at 4000 rpm for 10 min at 4° C. The supernatant was taken. The concentrations of the tested compounds and their metabolite (H130) in the supernatant were measured by LC-MS/MS.
A short description of series [4]: Plasma stability in vitro, human plasma. Particulars: for Content of Tested Substance (n = 2): human plasma, 2 μM, 37° C., in % (unit assumed).
Experimental: as §1

Regarding “2-[4-(5,7-dimethoxy-4-oxo-3,4-dihydro-quinazolin-2-yl)-2,6-dimethyl-phenoxy]-ethyl 4-(2-oxo-3-nitroxymethyl-1,2,5-oxadiazol-3-methyl)oxy-4-oxo-butyrate [Compound H111]”, in series [1], the “release of prototype compound H130 after administration” value (shortened to “release of prototype compound H130”) was “can be rapidly released”. Further, the “AUCRatio (Dosage Calibration)” value in series [1] (iv, 1 mg/kg) came out at 54.9%; in series [1] (po, 5 mg/kg), 41.8%. Moreover, the “Amount of Released No” value in series [2] stood at 52.12 µM.

Take `COc1cc(OC)c2c(=O)[nH]c(-c3cc(C)c(OCCO[N+](=O)[O-])c(C)c3)nc2c1` [Compound H101, 2-(4-(2-nitrooxy-ethoxy)-3,5-dimethylphenyl)-5,7-dimethoxyquinazolin-4(3H)-one]: the “Content of Tested Substance (n = 2)” value in series [3] (0 min) was 100.0; in series [3] (10 min), 101.4; in series [3] (30 min), 94.8; in series [3] (60 min), 99.7; in series [3] (120 min), 99.1; in series [4] (0 min) it was 100.0. In addition, the “Content of Tested Substance (n = 2)” value in series [4] (10 min) was 99.5; in series [4] (30 min), 96.4; in series [4] (60 min), 97.5; in series [4] (120 min), 95.8. Besides, the “stability in mouse plasma” value in series [3] (within 2 h) is “good stability”. In addition, the “stability in human plasma” value in series [4] (within 2 h) was “good stability”. Further, the “AUCRatio (Dosage Calibration)” value in series [1] (SD, iv, 1 mg/kg) is 37.7%; in series [1] (SD, po, 5 mg/kg), 42.4%. Also, the “release of prototype compound H130” value in series [1] is on record as “can be rapidly released”. Moreover, the “Amount of Released No” value in series [2] was found to be 5.97 µM.

For the molecule `COc1cc(OC)c2c(=O)[nH]c(-c3cc(C)c(OCCOC(=O)OC4COC5C(O[N+](=O)[O-])COC45)c(C)c3)nc2c1` (stereo not drawn) [Compound H119, 2-[4-(5,7-dimethoxy-4-oxo-3,4-dihydro-quinazolin-2-yl)-2,6-dimethyl-phenoxy]-ethyl (6-nitroxy-hexahydrofuro[3,2-b]furan-3-yl)-carbonate], in series [1], the “release of prototype compound H130” value is “can be rapidly released”. Moreover, the “AUCRatio (Dosage Calibration)” value came to 55.6% in series [1] (iv, 1 mg/kg) and 0.84% in series [1] (po, 5 mg/kg). Moreover, the “Amount of Released No” value in series [2] is 1.24 µM.
